This note sets out measurements from patent EP2181589A1, “Neurotoxic sterol glycosides” (Shaw, Christopher Ariel, priority 2008, dated 2010).

The subject of data set [1] is CD-1 mice. In words: Open field monitoring. Particulars: SG-fed vs control. In kind it is in vivo. On the procedure:
Five-month old male CD-1 mice (30.1-35.7 g, 7.5 cm - 8.8 cm) were purchased from Charles River (Wilmington, MA). Adult mice were chosen to mimic the mean age of onset of ALS-PDC (Kurland, 1988; Kurland et al., 1994). Thirty mice for the SG study were randomly divided into 2 groups (14 control and 16 experimental animals). All animals were housed singly in a virus-free barrier facility in a room maintained at 22°C under a 12 hour light/dark cycle. The mice were provided ad libitum access to food and water.
(§1) The synthetic SG was mixed with finely ground Purina Chow mouse pellets (Mouse Diet™, Purina) to create the experimental pellets with a SG content of 1000 µg per pellet. Dry materials were blended with a sterile silicon spatula. For every 5 g of standard feed, 2.5 mL of doubly-distilled water (dd)H2O was added and the dough was kneaded and round up into pellets. A single sterol glucoside containing pellet was placed in the feeding tray each morning before the addition of regular mouse chow (ad libitum). All experimental pellets were entirely consumed by the mice each day. Control mice were fed standard mouse chow pellets of identical weight with no additives. SG feeding was conducted daily for 15 weeks and mice were behaviorally monitored until sacrifice at 35 weeks (time point 1) or 52 weeks (time point 2).
Open field monitoring: Spontaneous activity in an open field is considered one of the most standardized general measures of motor function (Crawley, 2000). The open field test can also reveal stress response in animals (i.e. defensive burying or thigmotaxis) (Karl et al., 2003). Open field testing of each animal was conducted every two weeks. A single mouse was placed in one of four round open field arena/tubs (approximately 1 m diameter) to permit the testing of four animals per 5 minute trial. […] This in turn, increases the likelihood of detection of fear-based behavior (Crawley, 2000) and minimizes habituation of the animal to the open field (Crawley, 2000). Testing arenas were cleaned with 70% ethanol before the testing of each animal and with quatricide at the end of each testing session. Movements were recorded using a video camera mounted on the ceiling. Video clips were reviewed and were manually scored or automatically analysed on an automated video tracking software (Ethovision® 3.1, Noldus Information Technologies Inc., Leesburg, VA, USA). Scoring was done on videotaped sessions, rather than in-person at the time of testing to avoid the introduction of confounding variables by the presence of an observer in close proximity to the mice (Crawley, 2000).

Data set [2] deals with Cholinergic motor neurons in the spinal cord. In words: Choline acetyl transferase immunofluorescence. Particulars: SG-fed vs control; for Cholinergic neurons: ventral horn of lumbar spinal cord. In kind it is in vivo, CD-1 mice. The procedure: as §1
(§2) Tissue-mounted slides were processed for fluorescence microscopy as follows: Sections were rinsed in coplin jars for 45 minutes at room temperature (RT) in three changes of PBS. Sections were then incubated at RT for 30 minutes in a blocking permeabilization solution made of 5% normal goat serum (NGS), 5% normal rabbit serum (NRS) or 5% BlokHen II (Aves Labs, Inc., Tigard, OR), 0.05% Triton X-100 and PBS. Subsequently, the blocking solution was tipped off and the slides were rinsed in PBS for 2 minutes. […]

In data set [3] the test system is Activating transcription factor-3. In words: Activating transcription factor-3 immunofluorescence. In kind it is in vivo, CD-1 mice. Conditions: for Anti-ATF-3: SG-fed vs control. On the procedure: as §1, §2
Data set [4] relates to Phosphorylated Junser73. The data set can be described thus: Phosphorylated Jun ser73 immunofluorescence. The class given is in vivo, CD-1 mice. Conditions: for Anti-pJun: SG-fed vs control. On the procedure:
as §1, §2

Setting [5] is: SG-fed group over time, 35 to 52 wk.

Marks after values point to notes of the source that are not given here.

Take `CCC(C=CC(C)C1CCC2C3CC=C4CC(OC5OC(CO)C(O)C(O)C5O)CCC4(C)C3CCC12C)C(C)C` (centres unmarked) [SG]: the Total distance moved result in data set [1] (time-point 1, 35 wk) was “Total distance moved (ns)”. The “Total distance to zone border” value in data set [1] (time-point 1, 35 wk) is given as “Total distance to zone border (ns)”; in data set [1] (time-point 2, 52 wk) it was “Total distance to zone border* (*p<0.05)”. In addition, in data set [1] (time-point 1, 35 wk), the Total turn angle entry is recorded as “Total turn angle (ns)”. Moreover, the fewer cholinergic neurons in data set [2] (35 weeks) was 18%; in data set [2] (52 weeks) it was 32%. Besides, the Cholinergic neurons result in data set [2] (time-point 1, 35 wk) was “Cholinergic neurons (-18%)”; in data set [2] (time-point 2, 52 wk), “Cholinergic neurons (-32%)”. The Anti-ATF-3 immunoreactive cells entry in data set [3] (setting [5]) is “Anti-ATF-3 immunoreactive cells (SG-fed group over time): -48%***”. For the same molecule, the Anti-ATF-3 result is on record as “Anti-ATF-3:+242%***” in data set [3] (time-point 1, 35 wk) and “Anti-ATF-3:+101%**” in data set [3] (time-point 2, 52 wk). In data set [4] (setting [5]), the Anti-pJun immunoreactive cells result was “Anti-pJun immunoreactive cells (SG-fed group over time) (ns)”. Further, the Anti-pJun result in data set [4] (time-point 1, 35 wk) is reported as “Anti-pJun: +199%*”; in data set [4] (time-point 2, 52 wk), “Anti-pJun (ns)”.
